# Experimental data as given in PubChem BioAssay (NCI).
#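 Briefly, cells in 96-well plates were exposed to five compound concentrations for 48 h, and endpoints were estimated by linear interpolation. TGI denotes the concentration required for complete inhibition of growth.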
# Assays:
# Assay in all cases: growth of human tumour cells (NCI), 48 h
# [1] = system: TK-10 renal
# [2] = system: NCI-H226 lung
# [3] = system: NCI/ADR-RES ovarian
# [4] = system: T-47D breast
# [5] = system: HCT-116 colon
# [6] = system: EKVX NSCLC
# [7] = system: SW-620 colon
# [8] = system: KM12 colon
# [9] = system: A549 NSCLC
# [10] = system: LOX IMVI melanoma
# [11] = system: SK-MEL-28 melanoma
# [12] = system: RXF 393 renal
# [13] = system: IGROV1 ovarian
# [14] = system: CCRF-CEM leukemia
# [15] = system: MDA-MB-435
# [16] = system: U251 CNS
# [17] = system: BT-549 breast
# [18] = system: PC-3 prostate
# [19] = system: HOP-92 NSCLC
# [20] = system: NCI-H460 lung
# [21] = system: SF-539 CNS
# [22] = system: HS 578T breast
# [23] = system: SK-MEL-5 melanoma
# [24] = system: UACC-62 melanoma
# [25] = system: MALME-3M melanoma
# [26] = system: OVCAR-3 ovarian
# [27] = system: SK-MEL-2 melanoma
# [28] = system: MOLT-4 leukemia
# [29] = system: SNB-75 CNS
# [30] = system: 786-0 renal
# [31] = system: UO-31 renal
# [32] = system: SN12C renal
# [33] = system: OVCAR-4 ovarian
# [34] = system: CAKI-1 renal
# [35] = system: OVCAR-5 ovarian
# [36] = system: NCI-H23 lung
# [37] = system: SK-OV-3 ovarian
# [38] = system: SNB-19 CNS
# [39] = system: SF-295 CNS
# [40] = system: UACC-257 melanoma
# [41] = system: ACHN renal
# [42] = system: DU-145 prostate
# [43] = system: K-562 leukemia
# [44] = system: COLO 205 colon
# [45] = system: HCT-15 colon
# [46] = system: HOP-62 NSCLC
# [47] = system: HCC-2998 colon
# [48] = system: NCI-H522 lung
# [49] = system: HT29 colon
# [50] = system: OVCAR-8 ovarian
# [51] = system: MDA-MB-231 breast
# [52] = system: MCF7 breast
# [53] = system: M14 melanoma
# [54] = system: SF-268 CNS
# [55] = system: SR leukemia
# [56] = system: HL-60(TB) leukemia
# [57] = system: RPMI-8226 leukemia
# [58] = system: A498 renal
# [59] = system: MDA-N
compound,measurement,setting,value
CCOC(=O)c1c(-c2ccc(OC)cc2)ccn1C,TGI,[1],> 10 µM
same,TGI,[2],> 10 µM
same,TGI,[3],> 10 µM
same,TGI,[4],> 10 µM
same,TGI,[5],> 10 µM
same,TGI,[6],> 10 µM
same,TGI,[7],> 10 µM
same,TGI,[8],> 10 µM
same,TGI,[9],> 10 µM
same,TGI,[10],> 10 µM
same,TGI,[11],> 10 µM
same,TGI,[12],> 10 µM
same,TGI,[13],> 10 µM
same,TGI,[14],> 10 µM
same,TGI,[15],> 10 µM
same,TGI,[16],> 10 µM
same,TGI,[17],> 10 µM
same,TGI,[18],> 9.68 µM
same,TGI,[19],> 10 µM
same,TGI,[20],> 10 µM
same,TGI,[21],> 10 µM
same,TGI,[22],> 10 µM
same,TGI,[23],> 10 µM
same,TGI,[24],> 10 µM
same,TGI,[25],> 10 µM
same,TGI,[26],> 10 µM
same,TGI,[27],> 10 µM
same,TGI,[28],> 10 µM
same,TGI,[29],> 10 µM
same,TGI,[30],> 10 µM
same,TGI,[31],> 10 µM
same,TGI,[32],> 10 µM
same,TGI,[33],> 10 µM
same,TGI,[34],> 10 µM
same,TGI,[35],> 10 µM
same,TGI,[36],> 10 µM
same,TGI,[37],> 10 µM
same,TGI,[38],> 10 µM
same,TGI,[39],> 10 µM
same,TGI,[40],> 10 µM
same,TGI,[41],> 10 µM
same,TGI,[42],> 10 µM
same,TGI,[43],> 10 µM
same,TGI,[44],> 10 µM
same,TGI,[45],> 10 µM
same,TGI,[46],> 10 µM
same,TGI,[47],> 10 µM
same,TGI,[48],> 10 µM
same,TGI,[49],> 10 µM
same,TGI,[50],> 10 µM
same,TGI,[51],> 10 µM
same,TGI,[52],> 10 µM
same,TGI,[53],> 10 µM
same,TGI,[54],> 10 µM
same,TGI,[55],> 10 µM
O=C1Nc2ccccc2/C1=C\c1c(Cl)n(-c2ccccc2)c2ccccc12,TGI,[1],27 µM
same,TGI,[2],12.2 µM
same,TGI,[3],8.67 µM
same,TGI,[4],56.7 µM
same,TGI,[5],6.26 µM
same,TGI,[6],7.7 µM
same,TGI,[56],> 100 µM
same,TGI,[7],> 100 µM
same,TGI,[8],14 µM
same,TGI,[9],25 µM
same,TGI,[10],17.8 µM
same,TGI,[11],> 100 µM
same,TGI,[12],10.9 µM
same,TGI,[13],9.64 µM
same,TGI,[14],> 100 µM
same,TGI,[16],18.2 µM
same,TGI,[17],29.8 µM
same,TGI,[18],60.3 µM
same,TGI,[19],7.63 µM
same,TGI,[20],21.7 µM
same,TGI,[21],18.4 µM
same,TGI,[22],5.71 µM
same,TGI,[23],17.5 µM
same,TGI,[24],66.7 µM
same,TGI,[25],10.4 µM
same,TGI,[26],4.86 µM
same,TGI,[27],36.3 µM
same,TGI,[28],> 100 µM
same,TGI,[29],7.03 µM
same,TGI,[30],7.71 µM
same,TGI,[31],16 µM
same,TGI,[57],> 100 µM
same,TGI,[32],14.6 µM
same,TGI,[33],21.6 µM
same,TGI,[34],21.9 µM
same,TGI,[35],12.9 µM
same,TGI,[36],14 µM
same,TGI,[37],24 µM
same,TGI,[38],13.3 µM
same,TGI,[39],15.6 µM
same,TGI,[40],36.5 µM
same,TGI,[41],29.7 µM
same,TGI,[42],8.91 µM
same,TGI,[58],22.2 µM
same,TGI,[43],> 100 µM
same,TGI,[44],4.13 µM
same,TGI,[45],18.1 µM
same,TGI,[46],20.6 µM
same,TGI,[47],9.83 µM
same,TGI,[49],6.46 µM
same,TGI,[50],40.8 µM
same,TGI,[51],13.7 µM
same,TGI,[52],88 µM
same,TGI,[53],10.1 µM
same,TGI,[54],6.45 µM
same,TGI,[55],> 100 µM
COC(=O)[C@]1(c2cc3ccccc3n2S(=O)(=O)c2ccccc2)CC2CN(C(=O)OCc3ccccc3)C1C1OC(C)(C)OC21 (some centres not stated),TGI,[1],> 100 µM
same,TGI,[2],> 100 µM
same,TGI,[3],> 100 µM
same,TGI,[5],> 100 µM
same,TGI,[6],> 100 µM
same,TGI,[56],> 100 µM
same,TGI,[7],> 100 µM
same,TGI,[8],> 100 µM
same,TGI,[9],> 100 µM
same,TGI,[10],> 100 µM
same,TGI,[11],> 100 µM
same,TGI,[12],> 100 µM
same,TGI,[13],> 100 µM
same,TGI,[14],> 100 µM
same,TGI,[15],> 100 µM
same,TGI,[16],> 100 µM
same,TGI,[17],> 100 µM
same,TGI,[18],> 100 µM
same,TGI,[19],> 100 µM
same,TGI,[20],> 100 µM
same,TGI,[22],> 100 µM
same,TGI,[23],> 100 µM
same,TGI,[24],> 100 µM
same,TGI,[25],> 100 µM
same,TGI,[26],> 100 µM
same,TGI,[27],> 100 µM
same,TGI,[28],> 100 µM
same,TGI,[29],> 100 µM
same,TGI,[30],> 100 µM
same,TGI,[31],> 100 µM
same,TGI,[57],> 100 µM
same,TGI,[32],> 100 µM
same,TGI,[33],> 100 µM
same,TGI,[34],> 100 µM
same,TGI,[35],> 100 µM
same,TGI,[36],> 100 µM
same,TGI,[37],> 100 µM
same,TGI,[39],> 100 µM
same,TGI,[40],> 100 µM
same,TGI,[41],> 100 µM
same,TGI,[42],> 100 µM
same,TGI,[44],> 100 µM
same,TGI,[45],> 100 µM
same,TGI,[46],> 100 µM
same,TGI,[47],> 100 µM
same,TGI,[48],> 100 µM
same,TGI,[49],> 100 µM
same,TGI,[50],> 100 µM
same,TGI,[59],> 100 µM
same,TGI,[51],> 100 µM
same,TGI,[52],> 100 µM
same,TGI,[53],> 100 µM
COc1ccc(-c2nc3ccccc3s2)cc1OC,TGI,[3],> 100 µM
same,TGI,[5],> 100 µM
same,TGI,[56],> 100 µM
same,TGI,[7],> 100 µM
same,TGI,[8],> 100 µM
same,TGI,[9],> 100 µM
same,TGI,[10],> 100 µM
same,TGI,[11],> 100 µM
same,TGI,[14],> 100 µM
same,TGI,[15],> 100 µM
same,TGI,[16],> 100 µM
same,TGI,[17],57.6 µM
same,TGI,[18],> 100 µM
same,TGI,[19],> 100 µM
same,TGI,[20],59.8 µM
same,TGI,[21],> 100 µM
same,TGI,[22],> 100 µM
same,TGI,[23],39.1 µM
same,TGI,[24],> 100 µM
same,TGI,[27],> 100 µM
same,TGI,[28],> 100 µM
same,TGI,[29],> 100 µM
same,TGI,[30],> 100 µM
same,TGI,[31],> 100 µM
same,TGI,[57],> 100 µM
same,TGI,[32],> 100 µM
same,TGI,[33],> 100 µM
same,TGI,[35],> 100 µM
same,TGI,[36],> 100 µM
same,TGI,[37],62.9 µM
same,TGI,[38],28.3 µM
same,TGI,[39],88.2 µM
same,TGI,[40],> 100 µM
same,TGI,[41],> 100 µM
same,TGI,[43],> 100 µM
same,TGI,[44],> 100 µM
same,TGI,[45],> 100 µM
same,TGI,[46],> 100 µM
same,TGI,[49],> 100 µM
same,TGI,[50],> 100 µM
same,TGI,[59],> 100 µM
same,TGI,[51],> 100 µM
same,TGI,[53],> 100 µM
same,TGI,[55],> 100 µM
